Read-outs that look alike come from different tables or passages of the source.
Key:
Assay in all cases: Kinase selectivity, P33-radiolabeled assay
Type in all cases: biochemical
Conditions in all cases: 10 μM ATP
SLK/STK2 = molecular target: T1, SLK/STK2 (Homo sapiens, UniProt Q9H2G2)
T1 construct: purchased Reaction Biology Corp
How it was run: (§1)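 Values show % enzyme activity normalised to DMSO vehicle. They come from one 10 μM compound concentration run twice, at an ATP level of 10 μM.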

MST2/STK3 = molecular target: T2, MST2/STK3 (Homo sapiens, UniProt Q13188)
T2 construct: purchased Reaction Biology Corp
T2 sequence (Q13188 1-491): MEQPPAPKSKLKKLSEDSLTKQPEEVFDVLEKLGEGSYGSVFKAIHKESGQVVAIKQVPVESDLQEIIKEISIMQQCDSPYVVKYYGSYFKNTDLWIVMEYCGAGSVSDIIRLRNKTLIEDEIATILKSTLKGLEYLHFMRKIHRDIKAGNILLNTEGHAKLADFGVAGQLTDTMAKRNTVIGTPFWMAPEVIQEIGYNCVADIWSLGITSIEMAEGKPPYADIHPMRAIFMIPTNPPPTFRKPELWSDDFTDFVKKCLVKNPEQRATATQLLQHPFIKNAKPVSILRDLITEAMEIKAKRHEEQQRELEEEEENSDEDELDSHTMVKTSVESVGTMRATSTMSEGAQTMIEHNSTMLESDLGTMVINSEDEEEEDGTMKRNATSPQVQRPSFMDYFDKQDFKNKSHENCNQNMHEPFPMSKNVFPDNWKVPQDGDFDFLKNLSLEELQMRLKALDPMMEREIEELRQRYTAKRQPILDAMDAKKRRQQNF
How it was run: as §1

PKCiota = molecular target: T3, PKCiota (Homo sapiens, UniProt P41743)
T3 construct: purchased Reaction Biology Corp
T3 sequence (P41743 1-596): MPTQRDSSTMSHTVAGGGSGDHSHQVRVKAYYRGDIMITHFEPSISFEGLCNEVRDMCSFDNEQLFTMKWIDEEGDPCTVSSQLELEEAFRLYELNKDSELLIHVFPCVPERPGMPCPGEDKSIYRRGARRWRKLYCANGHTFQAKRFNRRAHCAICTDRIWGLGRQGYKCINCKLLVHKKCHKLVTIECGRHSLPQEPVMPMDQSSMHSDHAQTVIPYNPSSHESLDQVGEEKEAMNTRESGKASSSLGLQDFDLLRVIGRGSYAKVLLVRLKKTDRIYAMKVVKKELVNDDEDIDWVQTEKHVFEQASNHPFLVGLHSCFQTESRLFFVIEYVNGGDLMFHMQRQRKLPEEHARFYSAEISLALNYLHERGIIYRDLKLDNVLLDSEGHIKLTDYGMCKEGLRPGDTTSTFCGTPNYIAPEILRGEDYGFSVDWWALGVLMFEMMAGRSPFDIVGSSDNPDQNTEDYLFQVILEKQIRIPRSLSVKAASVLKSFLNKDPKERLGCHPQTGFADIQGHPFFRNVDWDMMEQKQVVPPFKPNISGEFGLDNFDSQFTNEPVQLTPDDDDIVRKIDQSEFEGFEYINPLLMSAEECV
How it was run: as §1

PKG1a = molecular target: T4, PKG1a (Homo sapiens, UniProt Q13976)
T4 construct: purchased Reaction Biology Corp
T4 sequence (Q13976 1-671): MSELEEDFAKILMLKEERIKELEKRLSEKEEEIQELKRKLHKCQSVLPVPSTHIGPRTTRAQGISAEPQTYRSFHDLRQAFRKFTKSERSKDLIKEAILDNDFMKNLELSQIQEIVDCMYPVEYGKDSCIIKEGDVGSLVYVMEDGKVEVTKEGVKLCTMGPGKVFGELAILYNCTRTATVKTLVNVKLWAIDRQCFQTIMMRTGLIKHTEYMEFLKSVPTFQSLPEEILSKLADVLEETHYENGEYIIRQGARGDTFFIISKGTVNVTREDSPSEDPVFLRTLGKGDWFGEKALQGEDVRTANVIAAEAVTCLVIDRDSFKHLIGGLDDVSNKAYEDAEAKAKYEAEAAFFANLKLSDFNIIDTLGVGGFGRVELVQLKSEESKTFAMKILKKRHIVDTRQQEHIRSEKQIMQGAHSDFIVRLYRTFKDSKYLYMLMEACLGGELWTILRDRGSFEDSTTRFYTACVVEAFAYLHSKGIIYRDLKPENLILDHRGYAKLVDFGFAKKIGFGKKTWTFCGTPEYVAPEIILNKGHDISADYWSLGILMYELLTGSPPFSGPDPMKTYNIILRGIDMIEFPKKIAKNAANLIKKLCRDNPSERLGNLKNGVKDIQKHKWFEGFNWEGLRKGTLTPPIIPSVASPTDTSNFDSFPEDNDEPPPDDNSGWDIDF
How it was run: as §1

[1] = read-out: % Enzyme Activity (relative to DMSO controls) AVG
[2] = read-out: % Enzyme Activity (relative to DMSO controls) Data 1
[3] = read-out: % Enzyme Activity (relative to DMSO controls) Data 2

T1 sequence (Q9H2G2 whole entry): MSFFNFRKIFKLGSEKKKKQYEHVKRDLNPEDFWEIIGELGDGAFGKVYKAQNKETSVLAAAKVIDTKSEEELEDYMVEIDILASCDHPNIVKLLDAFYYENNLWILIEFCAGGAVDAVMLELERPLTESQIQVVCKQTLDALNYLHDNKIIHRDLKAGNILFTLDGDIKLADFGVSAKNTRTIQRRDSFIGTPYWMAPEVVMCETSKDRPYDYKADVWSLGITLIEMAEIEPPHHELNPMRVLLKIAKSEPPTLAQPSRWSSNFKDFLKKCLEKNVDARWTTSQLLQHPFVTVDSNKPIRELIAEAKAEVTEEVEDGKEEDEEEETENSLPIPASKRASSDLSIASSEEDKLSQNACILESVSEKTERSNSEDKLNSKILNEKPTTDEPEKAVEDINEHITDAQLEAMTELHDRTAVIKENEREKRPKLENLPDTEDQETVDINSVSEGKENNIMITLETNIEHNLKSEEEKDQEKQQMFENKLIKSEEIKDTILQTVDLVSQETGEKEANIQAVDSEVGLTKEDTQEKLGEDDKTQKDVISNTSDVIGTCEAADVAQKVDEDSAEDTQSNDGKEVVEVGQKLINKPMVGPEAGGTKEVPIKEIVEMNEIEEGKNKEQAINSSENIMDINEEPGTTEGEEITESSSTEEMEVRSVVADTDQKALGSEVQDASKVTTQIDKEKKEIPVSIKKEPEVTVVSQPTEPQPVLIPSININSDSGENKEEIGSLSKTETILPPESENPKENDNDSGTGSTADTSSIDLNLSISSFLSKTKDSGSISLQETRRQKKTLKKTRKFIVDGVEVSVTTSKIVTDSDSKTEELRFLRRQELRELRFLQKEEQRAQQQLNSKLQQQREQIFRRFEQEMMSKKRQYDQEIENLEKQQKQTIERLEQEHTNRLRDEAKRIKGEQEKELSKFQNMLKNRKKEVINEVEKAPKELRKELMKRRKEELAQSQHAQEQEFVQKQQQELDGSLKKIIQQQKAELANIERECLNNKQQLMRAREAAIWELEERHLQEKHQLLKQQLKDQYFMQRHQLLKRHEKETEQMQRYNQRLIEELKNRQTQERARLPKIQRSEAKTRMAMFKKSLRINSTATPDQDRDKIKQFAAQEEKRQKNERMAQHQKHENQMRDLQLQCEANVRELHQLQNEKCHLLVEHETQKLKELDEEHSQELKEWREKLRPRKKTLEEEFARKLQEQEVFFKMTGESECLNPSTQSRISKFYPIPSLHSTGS

Question: Which remaining activity at 10 µM (SLK/STK2; [1]) does the source give for `CC(C)(C)C(=O)N1N=CC[C@H]1c1ccccc1` [GSK′963] here?
Answer: 86.9%

Question: What about the remaining activity at 10 µM (SLK/STK2; [2]) of the same molecule?
Answer: 85.3%

Question: And the remaining activity at 10 µM (SLK/STK2; [3])?
Answer: 88.5%

Question: And the remaining activity at 10 µM (MST2/STK3; [1])?
Answer: 107%

Question: What about the remaining activity at 10 µM (MST2/STK3; [2]) of the same molecule?
Answer: 105%

Question: And the remaining activity at 10 µM (MST2/STK3; [3])?
Answer: 109%

Question: What about the remaining activity at 10 µM (PKCiota; [1]) of the same molecule?
Answer: 109%

Question: And the remaining activity at 10 µM (PKCiota; [2])?
Answer: 105%

Question: What about the remaining activity at 10 µM (PKCiota; [3]) of the same molecule?
Answer: 114%

Question: And the remaining activity at 10 µM (PKG1a; [1])?
Answer: 90%

Question: And the remaining activity at 10 µM (PKG1a; [2])?
Answer: 92.4%

Question: What about the remaining activity at 10 µM (PKG1a; [3]) of the same molecule?
Answer: 87.7%
